Experimental data as given in patent US20160209428A1, “DIAGNOSTIC AND PREDICTIVE METABOLITE PATTERNS FOR DISORDERS AFFECTING THE BRAIN AND NERVOUS SYSTEM” (THE REGENTS OF THE UNIVERSITY OF CALIFORNIA, priority 2013, published 2016).
Entries after “also recorded” stand apart in the source; their conditions may differ.

Legend:
[1] = system: maternal immune activation (MIA) mouse model; assay: Plasma metabolomics after single-dose suramin or saline, MIA model; format: in vivo; conditions: for Pathway normalized by single-dose suramin treatment: MIA mice
Procedure: Only male animals that had been behaviorally evaluated were tested. Samples were analyzed on an AB SCIEX QTRAP 5500 triple quadrupole mass spectrometer equipped with a Turbo V electrospray ionization source, Shimadzu LC-20A UHPLC system and a PAL CTC autosampler (AB SCIEX). […] Plasma was separated by centrifugation at 600 g×5 min at 20° C. within 1 h of collection. Fresh lithium-heparin plasma was transferred to labeled tubes for storage at −80° C. for analysis. Typically, 45 μl of plasma was thawed on ice and transferred to a 1.7-ml Eppendorf tube. Two and one-half (2.5) microliters of a cocktail containing 35 commercial stable isotope internal standards and 2.5 μl of 310 stable isotope internal standards that were custom-synthesized in Escherichia coli and Saccharomyces cerevisiae by metabolic labeling with ^13C-glucose and ^13C-bicarbonate were added, mixed and incubated for 10 min at 20° C. to permit small molecules and vitamins in the internal standards to associate with plasma-binding proteins. Macromolecules (protein, DNA, RNA and so on) were precipitated by extraction with 4 volumes (200 μl) of cold (−20° C.), acetonitrile:methanol (50:50) (LCMS grade, Cat no. LC015-2.5 and GC230-4, Burdick & Jackson, Honeywell, Muskegon, Mich., USA), vortexed vigorously and incubated on crushed ice for 10 min, and then removed with centrifugation at 16000 g×10 min at 4° C. The supernatants containing the extracted metabolites and internal standards in the resulting 40:40:20 solvent mix of acetonitrile:methanol:water were transferred to labeled cryotubes and stored at −80° C. for LC-MS/MS (liquid chromatography-tandem mass spectrometry) analysis.
LC-MS/MS analysis was performed by MRM under the Analyst v1.6.1 software control in both negative and positive modes with rapid polarity switching (50 ms). Nitrogen was used for curtain gas (set to 30), collision gas (set to high) and ion source gases 1 and 2 (set to 35). The source temperature was 500° C. Spray voltage was set to −4500V in negative mode and to 5500V in positive mode. The values for Q1 and Q3 mass-to-charge ratios (mz−1), declustering potential, entrance potential, collision energy and collision cell exit potential were determined and optimized for each MRM for each metabolite. Ten microliters of extract were injected with PAL CTC autosampler into a 250 mm×2.1 mm, 5-μm Luna NH2 aminopropyl HPLC column (Phenomenex) held at 25° C. for chromatographic separation. […] The flow rate was 300 μl min^−1. All the samples were kept at 4° C. during analysis. The chromatographic peaks were identified using MultiQuant v2.1.1 (AB SCIEX), confirmed by manual inspection and the peak areas were integrated. The median of the peak area of stable isotope internal standards was calculated and used for the normalization of metabolite concentration across the samples and batches. N=6, 6.5-month-old males per group. Metabolite data were log-transformed before multivariate and univariate analyses.
Group means and s.e.m. are reported. Behavioral data involving more than two groups were analyzed by two-way analysis of variance (ANOVA) and one-way ANOVAs (GraphPad Prism 5.0d, GraphPad Software Inc., La Jolla, Calif., USA). Pair-wise post hoc testing was performed by the method of Tukey. Repeated measures ANOVA with prenatal treatment and drug as between subject factors and stimulus (mouse/cup) on time spent with mouse or cup was used as an additional test of social preference. Student's t-test was used for comparisons involving the two groups. Significance was set at P<0.05. Bonferroni post hoc correction was used to control for multiple hypothesis testing when t-tests were used to test social preference in two or more experimental groups. Metabolomic data were analyzed using multivariate partial least squares discriminant analysis, Ward hierarchical clustering and univariate one-way ANOVA with pairwise comparisons and post hoc correction by Fisher's least significant difference test in MetaboAnalyst.

[2] = system: Fragile X (Fmr1) knockout mouse; assay: Marble burying, Fragile X model; format: in vivo; conditions: KO-Sal v KO-Sur
Procedure: Marble burying behavior was measured over 30 minutes by a modification of methods used by Thomas, et al. (Thomas et al., 2009). Marble burying was used as a measure of normal rodent digging behavior. Marble burying has sometimes been considered a measure of anxiety, however, comprehensive genetic and behavioral studies have shown that marble burying is a normal mouse behavior that is genetically determined (Thomas et al., 2009). Marble burying was diminished 38% in Fragile X knockout mice.

[3] = system: Fragile X (Fmr1) knockout mouse; assay: T-maze spontaneous alternation (novelty preference), Fragile X model; format: in vivo; conditions: Fmr1 KO mice, weekly suramin 20 mg/kg ip
Source text: A preference for novelty was estimated as spontaneous alternation behavior in the T-maze.

[4] = system: Fragile X (Fmr1) knockout mouse; assay: Body temperature measurements (rectal core temperature); format: in vivo
Procedure: A BAT-12 Microprobe digital thermometer and RET-3 mouse rectal probe (Physitemp Instruments, Clifton, N.J.) were used to obtain rectal core temperatures to a precision of +/−0.1° C. Care was taken to measure temperatures ≧2 days after cage bedding changes, and to avoid animal transport stress immediately prior to measurement in order to avoid stress-induced hyperthermia (Adriaan Bouwknecht et al., 2007). Temperatures were measured between 9 am to 12 noon each day.
Normal basal body temperature was restored by antipurinergic therapy with suramin.

[5] = mice, after a single dose; cited from earlier work
[6] = system: maternal immune activation (MIA) mouse model; assay: T-maze spontaneous alternation, MIA model; format: in vivo; conditions: MIA animals
Procedure: Novelty preference was tested as spontaneous alternation behavior in the T-maze. […] (N=8-13, 5.25-month-old males per group).
Novelty preference is an innate feature of normal rodent and human behavior and a predictor of socialization and communication growth in children with ASD. The loss or suppression of novelty preference in children with ASD is associated with the phenomenon known as insistence on sameness. Preference for novelty was estimated as spontaneous alternation behavior in the T-maze. The T-maze can also be used to estimate spatial working memory, especially when food-motivated. […] These deficits were normalized after a single dose of suramin.

Cc1ccc(C(=O)Nc2ccc(S(=O)(=O)O)c3cc(S(=O)(=O)O)cc(S(=O)(=O)O)c23)cc1NC(=O)c1cccc(NC(=O)Nc2cccc(C(=O)Nc3cc(C(=O)Nc4ccc(S(=O)(=O)O)c5cc(S(=O)(=O)O)cc(S(=O)(=O)O)c45)ccc3C)c2)c1 [Suramin, suramin]
Pathways normalized by single-dose suramin treatment, all disturbed pathways ([1]; 17/18 pathways disturbed in the MIA model, plasma): 94% (17/18) | Pathway normalized by single-dose suramin treatment ([1]; Amino-sugar and galactose metabolism, plasma): Yes (1/1) | Pathway normalized by single-dose suramin treatment ([1]; Bile salt metabolism, plasma): No (0/3) | Pathway normalized by single-dose suramin treatment ([1]; Biopterin, neopterin, molybdopterin metabolism, plasma): Yes (1/1) | Pathway normalized by single-dose suramin treatment ([1]; Cholesterol, cortisol, steroid metabolism, plasma): Yes (4/4) | Pathway normalized by single-dose suramin treatment ([1]; GABA, glutamate, arginine, omithine, proline metabolism, plasma): Yes (1/1) | Pathway normalized by single-dose suramin treatment ([1]; Glycolysis and gluconeogenesis, plasma): Yes (3/3) | Pathway normalized by single-dose suramin treatment ([1]; Krebs cycle, plasma): Yes (2/2) | bile salt pathway disturbance ([1]; MIA model): not restored | Pathway normalized by single-dose suramin treatment ([1]; Microbiome metabolism, plasma): Yes (6/6) | Pathway normalized by single-dose suramin treatment ([1]; Oxalate, glyxoylate metabolism, plasma): Yes (2/2) | Pathway normalized by single-dose suramin treatment ([1]; Phospholipid metabolism, plasma): Yes (4/4) | Pathway normalized by single-dose suramin treatment ([1]; Purine metabolism, (metabolites normalized/discriminating), plasma 2 days after single dose): Yes (9/11) | Pathway normalized by single-dose suramin treatment ([1]; Pyrimidine metabolism, plasma): Yes (1/1) | Pathway normalized by single-dose suramin treatment ([1]; SAM, SAH, methionine, cysteine, glutathione metabolism, plasma): Yes (1/1) | Pathway normalized by single-dose suramin treatment ([1]; Sphingolipid metabolism, plasma): Yes (4/4) | Pathway normalized by single-dose suramin treatment ([1]; Thyroxine metabolism, plasma): Yes (1/1) | Pathway normalized by single-dose suramin treatment ([1]; Tryptophan metabolism, plasma): Yes (1/1) | Pathway normalized by single-dose suramin treatment ([1]; Vitamin B2 (riboflavin) metabolism, plasma): Yes (1/1) | Pathway normalized by single-dose suramin treatment ([1]; Vitamin B3 (niacin/NAD) metabolism, plasma): Yes (1/1) | differences in metabolic profile between control and MIA animals ([1]; plasma 2 days after single dose suramin 20 mg kg^−1 i.p.): substantially normalized; also recorded: drives the metabolism of MIA animals (PIC-Sal) strongly in the direction of controls | diminished marble burying [2]: improved | deficient novelty preference (spontaneous alternation in T-maze) [3]: normalized | body temperature of control animals ([4]; WT-Sal vs WT-Sur): no effect | basal body temperature of Fmr1 knockout mice ([4]; relative hypothermia of knockout, suramin treatment): restored | plasma half-life [5]: 1 week | novelty preference five weeks after suramin washout ([6]; 5 weeks after single dose): no residual benefit remained | deficient novelty preference (spontaneous alternation in T-maze) ([6]; single dose of suramin): normalized
